The target of this experiment is full-length human PRMT6 (Flag- and His-tagged) (Homo sapiens, UniProt Q96LA8). Briefly: PRMT6 Biochemical Assay (3H-SAM Flashplate, peptide substrate). The settings on record: read-out: Biochemical IC50 PRMT6. The method in brief: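 Radiometric methyltransferase readout: tritium transfer onto a biotin-tagged histone H4 36-50 peptide bearing monomethyl K44 (75 nM), captured on streptavidin Flashplates after stopping with 400 uM unlabeled SAM. Enzyme is baculovirus-expressed Flag-PRMT6-His at 1 nM, given 30 min with compound at room temperature before adding 200 nM 3H-SAM and 250 nM cold SAM (pH 7.6 Bicine, 2% DMSO). Percent inhibition relative to max/min (1 mM SAH) controls, curve-fit to IC50.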

Where [1] appears, read: single experiment or average of multiple experiments.

Where a name gives a salt, the structure may show the parent alone. Read-outs that look alike come from different tables or passages of the source.

Sequence of full-length human PRMT6 (Flag- and His-tagged) (Q96LA8 with tags, fused parts or gaps): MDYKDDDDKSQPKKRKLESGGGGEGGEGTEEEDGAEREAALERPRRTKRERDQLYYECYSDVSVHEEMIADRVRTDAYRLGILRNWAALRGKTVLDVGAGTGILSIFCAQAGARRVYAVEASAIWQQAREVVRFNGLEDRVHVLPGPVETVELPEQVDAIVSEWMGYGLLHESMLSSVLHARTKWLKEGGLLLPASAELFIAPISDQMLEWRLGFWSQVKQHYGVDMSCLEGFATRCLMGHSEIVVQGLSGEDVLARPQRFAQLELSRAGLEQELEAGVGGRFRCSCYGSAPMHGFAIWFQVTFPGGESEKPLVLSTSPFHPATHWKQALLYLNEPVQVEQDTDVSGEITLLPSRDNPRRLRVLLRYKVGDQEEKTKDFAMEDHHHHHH

Consider `CNCCN(C)Cc1c[nH]nc1[C@H]1CC[C@@]2(CC1)CC(C)(C)CO2` [Compound 133, Methyl[2-(methylamino)ethyl]([3-[(5s,8s)-3,3-dimethyl-1-oxaspiro[4.5]decan-8-yl]-1H-pyrazol-4-yl]methyl)amine], for which the half-maximal inhibitory concentration (IC50) was below 100 nM. Moreover, the half-maximal inhibitory concentration (IC50) under setting [1] worked out at 12.4 nM.

In the case of `CNCCN(C)Cc1c[nH]nc1[C@H]1CC[C@]2(CC1)CC(C)(C)CO2` [Compound 134, methyl[2-(methylamino)ethyl]([3-[(5r,8r)-3,3-dimethyl-1-oxaspiro[4.5]decan-8-yl]-1H-pyrazol-4-yl]methyl)amine], the half-inhibitory concentration (IC50) is below 100 nM. Also, under setting [1], the concentration for half-maximal inhibition (IC50) came to 35.1 nM.

Consider `CNCCN(C)Cc1c[nH]nc1[C@H]1CCC(C)(C)[C@@H](C(=O)NCCOC)C1` [Compound 268], for which the IC50 lay within 101 to 1000 nM. Besides, the half-maximal inhibitory concentration (IC50) under setting [1] is 141 nM.

On to `CNCCN(C)Cc1c[nH]nc1[C@@H]1CCC(C)(C)[C@@H](C(=O)NCCOC)C1` [Compound 269], for which the IC50 fell in the range of 101 to 1000 nM. For the same compound, the IC50 under setting [1] stood at 107 nM.

On to `CNCCN(C)Cc1c[nH]nc1[C@H]1CCC(C)(C)[C@@H](C(=O)NCCCOC)C1` [Compound 270], for which the IC50 was 101 to 1000 nM. In addition, under setting [1], the half-inhibitory concentration (IC50) turned out to be 149 nM.

Take `CNCCN(C)Cc1c[nH]nc1[C@@H]1CCC(C)(C)[C@@H](C(=O)NCCCOC)C1` [Compound 271, (1S,5R)—N-(3-methoxypropyl)-2,2-dimethyl-5-[4-({methyl[2-(methylamino)ethyl]amino}methyl)-1H-pyrazol-3-yl]cyclohexane-1-carboxamide]: the half-inhibitory concentration (IC50) was 101 to 1000 nM. For the same compound, the IC50 under setting [1] was 121 nM.

`CNCCN(C)Cc1c[nH]nc1C1CCC(C)(C)[C@H](OCCCOC)C1` (some centres unmarked) [Compound 272]: the half-maximal inhibitory concentration (IC50) is below 100 nM. For the same compound, the concentration for half-maximal inhibition (IC50) under setting [1] is 73.9 nM.

Regarding `CNCCN(C)Cc1c[nH]nc1C1CCC(C)(C)[C@H](OCC2CCOCC2)C1` (stereo partly drawn) [Compound 273, ({3-[(3R)-4,4-dimethyl-3-(oxan-4-ylmethoxy)cyclohexyl]-1H-pyrazol-4-yl}methyl)(methyl)[2-(methylamino)ethyl]amine], the half-maximal inhibitory concentration (IC50) was below 100 nM. Further, under setting [1], the IC50 is 40.5 nM.

Take `CNCCN(C)Cc1ccnn1C1CCC2(CC1)CC(C)(C)CO2` (centres unmarked) [Compound 274, trifluoroacetate]: the IC50 lay within 101 to 1000 nM. Moreover, the IC50 under setting [1] was 103 nM.

Take `CNCCN(C)Cc1ccnn1C1CCC2(CCCC2)CC1` [Compound 275, Methyl[2-(methylamino)ethyl][(1-[spiro[4.5]decan-8-yl]-1H-pyrazol-5-yl)methyl]amine trifluoroacetate]: the IC50 is below 100 nM. In addition, the IC50 under setting [1] came out at 18.6 nM.

A word on the IC50: it is the concentration needed to halve the response being measured.
